Biological target: 5HT2A (Homo sapiens, UniProt P28223)
Assay: Receptor Selection and Amplification (R-SAT) functional assay
Format: cell-based
Parameters: expressed in transfected cells; host or cells: NIH3T3 cells, pSI mammalian expression vector
Conditions: NIH3T3 cells; Ki from IC50 by Cheng and Prussoff; read-out: 5-HT2a (pKi) (R-SAT) (converted)
Source text: Receptor Selection and Amplification (R-SAT) Assays. […] The IC50 determined in the RSAT assay was converted into a Ki value using the method of Cheng and Prussoff, Biochem Pharmacol., 1973 Dec. 1; 22(23):3099-108. pKi is the negative of the log(Ki).

5HT2A, sequence (P28223 whole entry): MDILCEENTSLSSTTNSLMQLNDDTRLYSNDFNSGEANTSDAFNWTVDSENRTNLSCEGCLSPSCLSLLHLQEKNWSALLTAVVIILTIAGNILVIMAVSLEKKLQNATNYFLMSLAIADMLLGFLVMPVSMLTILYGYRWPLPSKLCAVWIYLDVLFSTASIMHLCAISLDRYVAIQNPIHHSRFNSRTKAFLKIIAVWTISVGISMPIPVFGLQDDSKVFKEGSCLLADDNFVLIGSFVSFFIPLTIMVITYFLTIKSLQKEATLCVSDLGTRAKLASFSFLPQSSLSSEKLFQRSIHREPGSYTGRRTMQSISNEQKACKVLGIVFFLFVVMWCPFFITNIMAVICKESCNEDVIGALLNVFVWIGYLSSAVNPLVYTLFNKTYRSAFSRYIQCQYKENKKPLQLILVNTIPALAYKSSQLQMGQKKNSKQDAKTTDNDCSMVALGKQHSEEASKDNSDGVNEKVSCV

SMILES	Ki
COc1ccc(CNC(=O)N(Cc2ccc(F)cc2)[C@H]2CCN(C)C[C@H]2F)c(OC)c1 (racemic) [Example 1, 1-[(2,4-dimethoxyphenyl)methyl]-3-[(3R,4S)-3-fluoro-1-methylpiperidin-4-yl]-3-[(4-fluorophenyl)methyl]urea; Trifluoroacetic Acid (1a) and 1-[(2,4-dimethoxyphenyl)methyl]-3-[(3S,4R)-3-fluoro-1-methylpiperidin-4-yl]-3-[(4-fluorophenyl)methyl]urea; Trifluoroacetic Acid (1b)]	25.1 nM
CN1CC[C@@H](N(Cc2ccc(F)cc2F)C(=O)NCc2ccc(OC3CC3)cc2)[C@@H](F)C1 (racemic) [Example 117, 1-[(4-cyclopropoxyphenyl)methyl]-3-[(2,4-difluorophenyl)methyl]-3-[(3S,4R)-3-fluoro-1-methylpiperidin-4-yl]urea and 1-[(4-cyclopropoxyphenyl)methyl]-3-[(2,4-difluorophenyl)methyl]-3-[(3R,4S)-3-fluoro-1-methylpiperidin-4-yl]urea]	0.398 nM
COc1ccc(CN(C(=O)NCc2ccc(OCC(C)C)cc2)C2CCN(C)CC2)c(OC)c1 [Example 2, 3-[(2,4-dimethoxyphenyl)methyl]-3-(1-methylpiperidin-4-yl)-1-{[4-(2-methylpropoxy)phenyl]methyl}urea]	3160 nM
CC(C)COc1ccc(CNC(=O)N(Cc2ccc(F)cc2OCc2ccccc2)C2CCN(C)CC2)cc1 [Example 13b, 1-{[2-(benzyloxy)-4-fluorophenyl]methyl}-1-(1-methylpiperidin-4-yl)-3-{[4-(2-methylpropoxy)phenyl]methyl}urea]	63.1 nM
O=C(O)C(F)(F)F.[2H]C([2H])([2H])C(Oc1ccc(CNC(=O)N(Cc2ccc(F)cc2F)C2CCN(C)CC2)cc1)(C([2H])([2H])[2H])C([2H])([2H])[2H] [Example 46]	0.794 nM
C[C@H](c1ccc(F)cc1F)N(C(=O)NCc1ccc(OC2CC2)cc1)C1CCN(C)CC1 [Example 47]	126 nM
COc1ccc(CNC(=O)N(Cc2ccc(F)cc2F)C2CCN(C)CC2)c(OC)c1 [Example 50]	100 nM
COc1ccc(CNC(=O)N(Cc2ccc(F)cc2F)C2CCN(C)CC2)c(C(F)(F)F)c1 [Example 53]	25.1 nM
COc1c(F)ccc(CNC(=O)N(Cc2ccc(F)cc2F)C2CCN(C)CC2)c1F [Example 54]	7.94 nM
CN1CCC(N(Cc2ccc(F)cc2F)C(=O)NCc2cccc3c2CC(C)(C)O3)CC1 [Example 58]	158 nM
CC(C)COc1ccc(CNC(=O)N(Cc2cc(F)ccc2F)C2CCN(C)CC2)cc1 [Example 63]	79.4 nM
CC(C)COc1ccc(CNC(=O)N(Cc2ccc(C(F)(F)F)cc2Cl)C2CCN(C)CC2)cc1 [Example 67]	79.4 nM
CC(C)COc1ccc(CNC(=O)N(Cc2ccc(C(F)(F)F)cc2F)C2CCN(C)CC2)cc1 [Example 68]	20 nM
CC(C)COc1ccc(CNC(=O)N(Cc2ccc(F)cc2N(C)C)C2CCN(C)CC2)cc1 [Example 69]	631 nM
CC(C)COc1ccc(CNC(=O)N(Cc2cc(F)c(F)cc2F)C2CCN(C)CC2)cc1 [Example 70]	50.1 nM
CC(C)COc1ccc(CNC(=O)N(Cc2c(F)cc(Cl)cc2F)C2CCN(C)CC2)cc1 [Example 71]	12.6 nM
CC(C)COc1ccc(CNC(=O)N(Cc2c(F)cccc2F)C2CCN(C)CC2)cc1 [Example 72]	15.8 nM
COc1cc(OC(C)C)ccc1CNC(=O)N(Cc1ccc(F)cc1F)C1CCN(C)CC1 [Example 74, 1-[(2,4-difluorophenyl)methyl]-3-{[2-methoxy-4-(propan-2-yloxy)phenyl]methyl}-1-(1-methylpiperidin-4-yl)urea]	39.8 nM
CC(C)Oc1ccc(CNC(=O)N(Cc2ccc(F)cc2F)C2CCCN(C)CC2)cc1 (stereo not shown) [Example 78, 1-[(2,4-difluorophenyl)methyl]-1-(1-methylazepan-4-yl)-3-{[4-(propan-2-yloxy)phenyl]methyl}urea; Trifluoroacetic Acid]	6.31 nM
CC(C)Oc1ccc(CNC(=O)N(Cc2ccc(F)cc2F)[C@@H]2CCN3CCC[C@H]3C2)cc1 [Example 80, 1-[(7R,8aS)-octahydroindolizin-7-yl]-1-[(2,4-difluorophenyl)methyl]-3-{[4-(propan-2-yloxy)phenyl]methyl}urea; Trifluoroacetic Acid]	2.51 nM
COc1cc(F)c(F)cc1CN(C(=O)NCc1ccc(OC(C)C)cc1)C1CCNCC1 [Example 83, 3-[(4,5-difluoro-2-methoxyphenyl)methyl]-3-(piperidin-4-yl)-1-{[4-(propan-2-yloxy)phenyl]methyl}urea; Trifluoroacetic Acid]	158 nM
CC(C)Oc1ccc(CNC(=O)N(Cc2ccc(F)cc2F)[C@H]2C[C@H]3CC[C@@H](C2)N3C)cc1 [Example 84, 3-[(2,4-difluorophenyl)methyl]-3-[(1R,3R,5S)-8-methyl-8-azabicyclo[3.2.1]octan-3-yl]-1-{[4-(propan-2-yloxy)phenyl]methyl}urea; Trifluoroacetic Acid]	50.1 nM
CC(C)C(C)(O)COc1ccc(CNC(=O)N(Cc2ccc(F)cc2F)C2CCN(C)CC2)cc1 (stereo not shown) [Example 87, 1-[(2,4-difluorophenyl)methyl]-3-{[4-(2-hydroxy-2,3-dimethylbutoxy)phenyl]methyl}-1-(1-methylpiperidin-4-yl)urea; Trifluoroacetic Acid]	10 nM

Now from value to compound:

Ki	SMILES
100 nM	CN1CCC(N(Cc2ccc(F)cc2F)C(=O)NCc2ccc([C@H](O)CO)cc2)CC1 (racemic) [Example 94, 1-[(2,4-difluorophenyl)methyl]-3-({4-[(1R)-1,2-dihydroxyethyl]phenyl}methyl)-1-(1-methylpiperidin-4-yl)urea; Trifluoroacetic Acid and 1-[(2,4-difluorophenyl)methyl]-3-({4-[(1S)-1,2-dihydroxyethyl]phenyl}methyl)-1-(1-methylpiperidin-4-yl)urea; Trifluoroacetic Acid]
10 nM	CN1CCC(N(Cc2ccc(F)cc2F)C(=O)NCc2ccc3ncoc3c2)CC1 [Example 29]
63.1 nM	CN1CCC(N(Cc2ccc(F)cc2F)C(=O)NCc2ccc3ocnc3c2)CC1 [Example 30]
6.31 nM	CN1CCC(N(Cc2ccc(F)cc2F)C(=O)NCc2ccc3c(ccn3C)c2)CC1 [Example 31]
7.94 nM	CN1CCC(N(Cc2ccc(F)cc2F)C(=O)NCc2ccc3c(c2)N(C)CCO3)CC1 [Example 32]
100 nM	COc1ccc(CNC(=O)N(Cc2ccc(F)cc2F)C2CCN(C)CC2)cc1C#N [Example 48]
6.31 nM	CN1CCC(N(Cc2ccc(F)cc2F)C(=O)NCc2ccc(F)cc2)CC1 [Example 49]
25.1 nM	COc1ccc(CNC(=O)N(Cc2ccc(F)cc2F)C2CCN(C)CC2)c(Cl)c1 [Example 51]
15.8 nM	CN1CCC(N(Cc2ccc(F)cc2F)C(=O)NCc2ccc3c(c2)OC(C)(C)C3)CC1 [Example 59]
6.31 nM	[2H]C([2H])([2H])Oc1ccc(CNC(=O)N(Cc2ccc(F)cc2F)C2CCN(C)CC2)cc1 [Example 73, 1-[(2,4-difluorophenyl)methyl]-3-{[4-(^2H3)methoxyphenyl]methyl}-1-(1-methylpiperidin-4-yl)urea]
79.4 nM	CN1CCC(N(Cc2ccc(F)cc2F)C(=O)NCc2ccc3[nH]cnc3c2)CC1 [Example 77, 3-[(1H-1,3-benzodiazol-5-yl)methyl]-1-[(2,4-difluorophenyl)methyl]-1-(1-methylpiperidin-4-yl)urea; Trifluoroacetic Acid]

Reference: patent US12139477B2, “Compounds, salts thereof and methods for treatment of diseases” (ACADIA PHARMACEUTICALS INC., priority 2017, dated 2024)
